Columns and labels:
human erythrocytes = assay: Hemolytic activity; type: cell-based
Experimental: Hemolytic assay was performed as described. Freshly drawn human erythrocytes were rinsed three times with PBS and resuspended in PBS to 4% (v/v). One hundred microliters of the suspension was added to 96-well microtiter plate containing equal volume of peptides to give final concentrations of peptides encompassing the range of 1.96–250 μg/ml. PBS and 0.1% (v/v) Triton-X 100 were used as 0% and 100% hemolytic control respectively. Plates were incubated at 37°C for 1 hr. Subsequently, the plate was centrifuged and the supernatant was transferred to a new plate. The release of hemoglobin in the supernatant was monitored at absorbance of 450 nm using Glomax Multidetection system (Promega, USA). Results were pooled from three independent experiments and expressed as mean ± SD. HC10 and HC50 were defined as the peptide concentrations causing 10% and 50% hemolysis on human erythrocytes, respectively. Hmax was the percentage hemolysis observed at the maximum concentration as defined throughout this study (all peptides 250 μg/ml, PEN 4 μg/ml).

PRSP, PISP, and PSSP = type: cell-based, Streptococcus pneumoniae; details: 30 min post treatment, 2× MIC, 5 × 10^6 CFU/ml in CAMHB, plate count, relative to untreated control
Experimental: This assay was performed to evaluate the killing kinetics of peptides. One PRSP, PISP, and PSSP isolate were each grown and prepared to 5 × 10^6 CFU/ml. Each isolate in CAMHB was challenged with peptides at two times the respective MIC values. At the indicated time intervals (0, 30, 60, 120, 150, 180, 210, and 240 min; “0” indicate pretreatment), 10 μl of suspension was removed and immediately serially diluted in cold phosphate-buffered saline to arrest further reaction before spread-plated on MHA to obtain viable colony counts. The percentage cell recovered was calculated by dividing the surviving CFU of the treated cells over the surviving CFU of the untreated control cells at the respective time points. Results were pooled from three independent experiments and expressed as mean ± standard deviation (SD).

A549 cell line = assay: Cytotoxicity against human cell lines (CellTiter 96 AQueous); type: cell-based
Experimental: (§1) Both the NL20 human lung bronchial normal epithelial cell line and the A549 human lung alveolar adenocarcinoma epithelial cell line were used for cell cytotoxicity tests. Besides investigating the cytotoxicity of peptides, differences in cell viability between the two cell lines can be used to evaluate the cell line selectivity and to assess potential anticancer potential of the peptides. NL20 cell line was grown in Ham's F12 medium and A549 cell line was grown in Roswell Park Memorial Institute medium. Both media were supplemented with fetal bovine serum to 10% (v/v) as growth medium or 2% (v/v) as maintenance medium in cell cytotoxicity testing. The assay was performed as described by Lee et al.[26]. NL20 cells was seeded overnight at 3 × 10^4 cells/well in 96-well cell culture-treated flat bottom microtiter plate and treated with serial dilutions of peptide at a final concentration of 1.95–250 μg/ml. PEN was tested from 0.03–4 μg/ml, the same range used to classify the susceptibility of pneumococcal isolates in this study. Test using A549 cells followed the same procedures with 1 × 10^4 cells/well. Plates were incubated at 37°C under 5% CO2 for 24, 48, and 72 hrs. Cell viability was detected by using CellTiter 96® AQueous Non-Radioactive Cell Proliferation assay (Promega, USA) and the colorimetric changes were read with Glomax multidetection system (Promega, USA) at OD 490 nm. Results were pooled from three independent experiments and expressed as mean ± SD. […] Imax was the percentage of cell viable treated with peptides/PEN at the maximum concentration as defined throughout this study (all peptides 250 μg/ml, PEN 4 μg/ml).

NL20 cell line = assay: as above; type: cell-based
Experimental: as §1

For penicillin [reference compound], the HC10 (human erythrocytes) was over 4 µg/mL, the HC50 (human erythrocytes) was over 4 µg/mL and the “CFU recovered (viability), all three groups of pneumococci” value (PRSP, PISP, and PSSP) was 60–78%. For the same substance, the “IC50, A549 cell line, 24 hrs” value (A549 cell line) was over 4 µg/mL, the “IC50, A549 cell line, 48 hrs” value (A549 cell line) was over 4 µg/mL and the “IC50, A549 cell line, 72 hrs” value (A549 cell line) was over 4 µg/mL. For the same substance, the “IC50, NL20 cell line, 24 hrs” value (NL20 cell line) was over 4 µg/mL, the “IC50, NL20 cell line, 48 hrs” value (NL20 cell line) was over 4 µg/mL and the “IC50, NL20 cell line, 72 hrs” value (NL20 cell line) was over 4 µg/mL. The “Imax, NL20 cell line, 24 hrs” value (NL20 cell line) was 105.2 ± 0.2%, the “Imax, NL20 cell line, 48 hrs” value (NL20 cell line) was 106.1 ± 6.2% and the “Imax, NL20 cell line, 72 hrs” value (NL20 cell line) was 88.3 ± 0.4%.
